Experimental data reported in patent publication US10071989B2, “Substituted cinnamamide derivative, preparation method and use thereof” (TASLY PHARMACEUTICAL GROUP CO., LTD., priority 2011, dated 2018).
Entries after “also recorded” stand apart in the source; their conditions may differ. Where a name gives a salt, the structure may show the parent alone. Read-outs that look alike come from different tables or passages of the source. Marks after values point to notes of the source that are not given here.

Columns and labels:
Format in all cases: in vivo
[1] = system: C57BL/6 mice; test: Number of autonomic activity of mice (YLS-1A autonomic activity recorder); conditions: for Number of Autonomic activity (time): 10 mg/kg intragastric once daily, counted 30 min after administration at 6th day; for Effect on autonomic activity of mice (in words): 10 mg/kg intragastric, one week, compared with the solvent control group
Method: 110 mice were randomly selected to observe the number of their autonomic activity. The mice was placed into the YLS-1A multi-functional mice autonomic activity recorder, and after 1 min of adaption, the mice's activity was counted within a time period from the end of 1st min to 4th min. 96 mice with the number of autonomic activity between 70˜140 were screened out, divided randomly into 8 groups, and intragastrically administrated with the drug compounds at a dose listed in Table 1, one time daily for 7 days consecutively. The solvent control group was administrated with 2% Tween-80 aqueous solution in the same volume. All mice were placed into the autonomic activity recorder 30 min after administration at 6th day. After 1 min of adaption, the mice's activity was counted within a time period from the end of 1st min to 4th min.
(§1) 130 mice were randomly selected to observe the number of their autonomic activity. The method was the same with that of Experiment 1. 108 mice with the number of autonomic activity between 70˜140 were screened out, divided randomly into 9 groups, and intragastrically administrated with the drug compounds at a dose listed in Table 2, one time daily for 7 days consecutively. The solvent control group was administrated with 2% Tween-80 aqueous solution in the same volume. 30 min after administration at 6th day, the number of the autonomic activity of each mouse was observed. 30 min after administration at 7th day, the immobility time in tail suspension test was observed. The method was the same with that in Experiment 1.

[2] = system: C57BL/6 mice; test: Depression model test of anti-blepharoptosis caused by reserpine (akinesia, blepharoptosis, shell temperature); conditions: for Blepharoptosis, “out-of-circle” ratio and shell temperature after reserpine (effect in words) / Change in the shell temperature (ΔT ° C.) / Degree of eye-closure / responders at 10 mg/kg / Change in the shell temperature (T ° C.): 10 mg/kg intragastric 7 days; for Blepharoptosis, “out-of-circle” ratio and shell temperature after reserpine (effect in words): compared with the solvent control group; for “out-of-circle” ratio after reserpine compared with I-1 (in words): compared with I-1, p<0.05; for Change in the shell temperature (ΔT ° C.) / Degree of eye-closure / responders at 10 mg/kg / Change in the shell temperature (T ° C.): reserpine 4 mg/kg i.p.; for Change in the shell temperature (ΔT ° C.) / Change in the shell temperature (T ° C.): abdomen, two hours after reserpine; for Change in the shell temperature (ΔT ° C.) / Degree of eye-closure / Change in the shell temperature (T ° C.): ±SD; for Degree of eye-closure: score 0-4 one hour after reserpine; for responders at 10 mg/kg: Mus musculus, po, 1 h, one hour after reserpine, 7.5 cm circle, 15-second observation, read-out: “out-of-circle” ratio
Method: 120 male C57BL/6 mice were randomly selected to observe the number of their autonomic activity. The mice was placed into the YLS-1A multi-functional mice autonomic activity recorder, and after 1 min of adaption, the activity of the mice was counted within a time period from the end of 1st min to 4th min. 96 mice with the number of autonomic activity between 70˜140 were screened out, divided randomly into 8 groups, and intragastrically administrated with the drug compounds at a dose listed in Table 3, one time daily for 7 days consecutively. The solvent control group was administrated with 2% Tween-80 aqueous solution in the same volume. Except the normal control group, 30 min after the last administration, each group was injected intraperitoneally with reserpine at a dose of 4 mg/kg. Next, akinesia, blepharoptosis and shell temperature were observed.
I Akinesia: one hour after intraperitoneal injection of reserpine, the mice were placed at the center of a circle with a diameter of 7.5 cm for a 15-second observation to calculate the “out-of-circle” ratio.
II Blepharoptosis: one hour after intraperitoneal injection of reserpine, the eye closure of mice was observed and scored by the following standard: eyelids open, 0; eyelids ¼ closed, 1; eyelids 2/4 closed, 2; eyelids ¾ closed, 3; eyelids closed completely, 4.
III Shell temperature: two hours after intraperitoneal injection of reserpine, the shell temperature of the abdomen of the mice was measured.
120 C57BL/6 mice were randomly selected to observe the number of their autonomic activity. The method was the same with that of Experiment 1. 100 mice with the number of autonomic activity between 70˜140 were screened out, divided randomly into 10 groups, and intragastrically administrated with the drug compounds at a dose listed in Table 4, one time daily for 7 days consecutively. The mice in the normal group and the solvent control group were administrated with 2% Tween-80 aqueous solution in the same volume. Except the normal control group, 30 min after the last administration, each group was injected intraperitoneally with reserpine at a dose of 4 mg/kg. Next, akinesia, blepharoptosis and shell temperature were observed. Observation method was the same with that of Experiment 1.

[3] = system: C57BL/6 mice; test: "Acquired despair" depression model of tail suspension test in mice; conditions: for Effect on immobility time in tail suspension test (in words): 10 mg/kg intragastric for 7 days, compared with the solvent control group
Method: 30 min after administration at 7th day, the mice was fixed on a sustainer with a rubberized cloth at 1 cm close to the end of the tail of mice, making the mice hanged upside down. The head of the mice was about 30 cm above the table and its sight was separated from the neighboring mouse with a plate. Usually, the mice might manage to struggle in hopes of overcoming the abnormal body position. […] The accumulated immobility time within 6 min of each mouse was observed, which was regarded as “despair time”.
as §1

[4] = system: mice; test: Anti-depression effect in the tested models (overall conclusion); conditions: in the tested model at the tested dose
From the text: Based on the aforesaid experiments, the following conclusion can be drawn: • 1.

[5] = system: C57BL/6 mice; test: Forced swimming experiment in mice; conditions: 10 mg/kg intragastric once daily for 7 days; 30 min after last administration; end of 2nd min to 6th min
Method: After 1˜2 days of adaptive feed, 80 male C57BL/6 mice, aged 6˜8 weeks and weighing 18˜22 g, were placed into the YLS-1A multi-functional mice autonomic activity recorder. After 1 min of adaption, the activity of the mice was counted within a time period from the end of 1st min to 4th min. 60 mice with the number of autonomic activity between 70˜140 were screened out, divided randomly into 6 groups, and intragastrically administrated with the drug compounds at a dose listed in Table 5, one time daily for 7 days consecutively. The solvent control group was administrated with 2% Tween-80 aqueous solution in the same volume. After the administration at 6th day, the mice were placed into a cylindrical aquarium with a water depth of 10 cm and 25° C. to force the mice to swim. After 15 min, the mice were taken out, dried and returned to the cage. 24 hours later, 30 min after the last intragastrical administration, the mice were placed into a glass bottle with a diameter of 10 cm, a height of 30 cm and a water depth of 10 cm, and the temperature of the water in the bottle was at 25° C. The mice were separated with an opaque partition, so as not to influence each other. After 2 min of adaption, an accumulated immobility time from the end of 2nd min to 6th min was recorded.

[6] = Experiment 1, end of 1st min to 4th min

Structure (SMILES)	Number of Autonomic activity (time) [1, 6] [time]	Blepharoptosis, “out-of-circle” ratio and shell temperature after reserpine (effect in words) [2]	“out-of-circle” ratio after reserpine compared with I-1 (in words) ([2]; 10 mg/kg)	Change in the shell temperature (ΔT ° C.) ([2]; Experiment 1) [°C]	Degree of eye-closure ([2]; Experiment 1)	responders at 10 mg/kg ([2]; Experiment 1) [%]	Degree of eye closure / blepharoptosis after reserpine compared with I-1 (in words) ([2]; 10 mg/kg)	Effect on immobility time in tail suspension test (in words) [3]	Effect on antagonizing immobility in tail suspension test compared with I-1 (in words) ([3]; 10 mg/kg, compared with I-1, p<0.05)	Effect on autonomic activity of mice (in words) [1]	Improving akinesia, blepharoptosis and shell temperature: ranking among the tested compounds (in words) ([2]; 10 mg/kg, within the experiment)	Anti-depression effect compared with the pharmacologic effect of I-1 (in words) [4]	Number of Autonomic activity (time) ([1]; Experiment 2)	Change in the shell temperature (T ° C.) ([2]; Experiment 2) [°C]	Degree of eye-closure ([2]; Experiment 2)	responders at 10 mg/kg ([2]; Experiment 2) [%]	Blepharoptosis, “out-of-circle” ratio and shell temperature after reserpine (effect in words) ([2]; hydrochloride)	Immobility time in the forced swimming test in mice(s) [5] [s]
CC(C)CNC(=O)/C=C/c1cc2c(c([N+](=O)[O-])c1)OCO2 [Compound I-2, N-isobutyl-5′-nitro-3′,4′-methylenedioxy cinnamamide]	102.00 ± 26.24	improved significantly	increased markedly	1.60 ± 0.18	1.67 ± 1.30	83												
CC(C)CNC(=O)/C=C/c1cc(I)c2c(c1)OCO2 [Compound I-3, N-isobutyl-5′-iodo-3′,4′-methylenedioxy cinnamamide]	94.42 ± 23.97	improved significantly	increased markedly	1.72 ± 0.26	1.00 ± 1.13**^ΔΔ	92	reduced											
CC(C)CNC(=O)/C=C/c1cc(Cl)c2c(c1)OCO2 [Compound I-4, N-isobutyl-5′-chloro-3′,4′-methylenedioxy cinnamamide]	94.75 ± 28.53	improved significantly; also recorded: antagonizing the decrease of shell temperature, akinesia and improving the degree of eye closure	increased markedly	1.51 ± 0.31	0.17 ± 0.39**^ΔΔ	100	reduced	remarkably reduce the immobility time; also recorded: significantly shorten the immobility time	better effect	had no affect	best effect	increased to some degree						
COc1cc(/C=C/C=C/C(=O)NCC(C)C)cc2c1OCO2 [Compound I-6, N-isobutyl-5-(5′-methoxy-3′,4′-methylenedioxyphenyl)pentadienamide]	98.83 ± 17.56	improved significantly	increased markedly	1.84 ± 0.22	2.08 ± 1.68	67												
CN(C)C(=O)/C=C/c1cc2c(c(C(F)(F)F)c1)OCO2 [Compound I-8, N,N-dimethyl-5′-trifluoromethyl-3′,4′-methylenedioxy cinnamamide]		remarkably improve; also recorded: antagonizing the decrease of shell temperature, akinesia and improving the degree of eye closure											84.00 ± 21.81	27.60 ± 0.88	2.30 ± 1.64	40		
CCN(CC)C(=O)/C=C/c1cc2c(c(C(F)(F)F)c1)OCO2 [Compound I-9, N,N-diethyl-5′-trifluoromethyl-3′,4′-methylenedioxy cinnamamide]		remarkably improve; also recorded: antagonizing the decrease of shell temperature, akinesia and improving the degree of eye closure					increased improvement	reduce the immobility time of the mice in tail suspension test significantly; also recorded: significantly shorten the immobility time		had no effect		increased to some degree	83.60 ± 22.68	28.70 ± 1.78	1.80 ± 1.23	30		
CNCCC(Oc1ccc(C(F)(F)F)cc1)c1ccccc1 (stereo not drawn) [fluoxetine hydrochloride, Fluoxetine hydrochloride, reference compound]	121.75 ± 24.14			1.89 ± 0.21	1.42 ± 1.38**Δ	58		reduce the immobility time in tail suspension test significantly		had no effect			102.0 ± 14.91	29.20 ± 0.54	2.00 ± 1.33	50	obviously increase mice “out-of-circle” ratio and shell temperature, and significantly reduce the degree of eye closure of the mice; also recorded: improve the “out-of-circle” ratio obviously, and significantly reduce the degree of eye closure and raise the shell temperature	98.96 ± 32.43
